The values below come from ChEMBL document CHEMBL5257065, “Isosteviol derivatives as protein tyrosine Phosphatase-1B inhibitors: Synthesis, biological evaluation and molecular docking” (Bioorg Med Chem, 2023).

In experiment [1] the target is T1, Tyrosine-protein phosphatase non-receptor type 1 (Homo sapiens) (UniProt P18031).
T1 sequence (whole entry): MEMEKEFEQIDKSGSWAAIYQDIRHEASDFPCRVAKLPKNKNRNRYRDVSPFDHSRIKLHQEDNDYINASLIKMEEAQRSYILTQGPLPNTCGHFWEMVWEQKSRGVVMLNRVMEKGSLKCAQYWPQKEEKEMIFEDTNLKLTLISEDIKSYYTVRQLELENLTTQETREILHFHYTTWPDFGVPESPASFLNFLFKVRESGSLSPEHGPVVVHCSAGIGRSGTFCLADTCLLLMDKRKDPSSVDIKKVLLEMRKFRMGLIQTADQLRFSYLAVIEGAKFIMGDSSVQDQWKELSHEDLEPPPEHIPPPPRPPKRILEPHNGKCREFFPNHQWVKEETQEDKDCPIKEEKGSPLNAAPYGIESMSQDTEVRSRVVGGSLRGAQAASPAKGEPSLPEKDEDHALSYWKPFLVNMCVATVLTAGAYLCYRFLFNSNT
Nature of the experiment: Inhibition of PTP1B (unknown origin) at 10 micromol/L by DAS-ELISA. The settings on record: dose 10.0 µmol/L. On the technique in general: In an ELISA, binding on a coated surface is turned into a signal by an enzyme label.

Experiment [2] concerns the target T2, Tyrosine-protein phosphatase non-receptor type 2 (Homo sapiens, UniProt P17706).
T2 sequence (P17706 whole entry): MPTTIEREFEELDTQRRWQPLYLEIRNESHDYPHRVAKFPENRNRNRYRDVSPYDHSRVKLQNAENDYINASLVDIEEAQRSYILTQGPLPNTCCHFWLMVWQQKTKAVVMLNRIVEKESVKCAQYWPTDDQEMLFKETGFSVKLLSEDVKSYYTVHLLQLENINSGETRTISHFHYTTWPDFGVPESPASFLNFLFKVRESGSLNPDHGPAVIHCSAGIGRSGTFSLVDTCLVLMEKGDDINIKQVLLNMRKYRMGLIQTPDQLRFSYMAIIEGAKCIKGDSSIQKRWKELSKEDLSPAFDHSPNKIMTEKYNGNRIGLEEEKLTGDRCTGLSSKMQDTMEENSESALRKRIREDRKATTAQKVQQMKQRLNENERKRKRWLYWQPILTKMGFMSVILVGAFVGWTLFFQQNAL
Nature of the experiment: Inhibition of TCPTP (unknown origin) by DAS-ELISA.

The species entered for experiment [3] is Homo sapiens. Nature of the experiment: Selectivity ratio of IC50 for TCPTP (unknown origin) to IC50 for PTP1B (unknown origin) by DAS-ELISA.
The species named for experiment [4] is Homo sapiens. Nature of the experiment: Selectivity ratio of IC50 for CDC25B (unknown origin) to IC50 for PTP1B (unknown origin) by DAS-ELISA.
In experiment [5] the target is T3, Tyrosine-protein phosphatase non-receptor type 1 (Homo sapiens, UniProt P18031).
T3 sequence (P18031 whole entry): T1 sequence (whole entry)
Nature of the experiment: Inhibition of PTP1B (unknown origin) by DAS-ELISA.

Experiment [6] concerns the target T4, M-phase inducer phosphatase 2 (Homo sapiens, UniProt P30305).
T4 sequence (P30305 whole entry): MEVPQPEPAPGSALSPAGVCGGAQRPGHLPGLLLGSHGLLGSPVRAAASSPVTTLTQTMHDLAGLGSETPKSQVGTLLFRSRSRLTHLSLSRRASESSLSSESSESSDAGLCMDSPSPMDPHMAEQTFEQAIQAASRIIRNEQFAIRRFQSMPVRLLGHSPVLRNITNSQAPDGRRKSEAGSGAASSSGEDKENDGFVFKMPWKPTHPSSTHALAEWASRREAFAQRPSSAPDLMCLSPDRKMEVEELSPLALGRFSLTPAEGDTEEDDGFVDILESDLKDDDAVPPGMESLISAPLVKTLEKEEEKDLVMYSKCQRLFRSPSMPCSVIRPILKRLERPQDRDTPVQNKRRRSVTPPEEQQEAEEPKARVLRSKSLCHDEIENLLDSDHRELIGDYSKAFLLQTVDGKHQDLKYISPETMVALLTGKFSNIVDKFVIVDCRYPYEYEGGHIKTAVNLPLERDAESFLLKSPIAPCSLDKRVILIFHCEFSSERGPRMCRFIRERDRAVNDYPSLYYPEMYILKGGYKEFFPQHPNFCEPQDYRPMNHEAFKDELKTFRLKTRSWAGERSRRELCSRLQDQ
Nature of the experiment: Inhibition of CDC25B (unknown origin) by DAS-ELISA.

The structures appear in SMILES notation.

In experiment [1], `COC(=O)[C@]1(C)CCC[C@@]2(C)[C@@H]3CC[C@@]4(C)C[C@]3(CC[C@@H]21)C/C4=N\O` registered an inhibition of 22%.

In the case of `C[C@@]12CC[C@@H]3[C@@](CC[C@H]4[C@@]3(C)CCC[C@@]4(C)C(=O)OCc3ccc(Br)cc3)(CC1=O)C2`, the IC50 in experiment [2] was 3240 nM; in experiment [5], 330 nM; in experiment [6], 3550 nM. The Ratio IC50 in experiment [3] is 3.5; in experiment [4], 6. Further, the inhibition in experiment [1] turned out to be 79.6%.

Regarding `C[C@@]12CC[C@@H]3[C@@](CC[C@H]4[C@@]3(C)CCC[C@@]4(C)C(=O)O)(CC1=O)C2` [ISOSTEVIOL], the results for the IC50 in experiment [2], in experiment [5] and in experiment [6] were 1580 nM, 2270 nM and 2090 nM, respectively. In experiment [1], this compound showed an inhibition of 63.6%.

For the compound `CCOC(=O)[C@]1(C)CCC[C@@]2(C)[C@@H]3CC[C@@]4(C)C[C@]3(CC[C@@H]21)C[C@H]4OC(=O)c1ccc(O)cc1`, the IC50 was found to be 2630 nM in experiment [2], 360 nM in experiment [5] and 2340 nM in experiment [6]. For the same compound, the Ratio IC50 in experiment [3] came out at 3.5; in experiment [4] it was 6. This compound came in with an inhibition in experiment [1] of 79%.

With `CCOC(=O)[C@]1(C)CCC[C@@]2(C)[C@@H]3CC[C@@]4(C)C[C@]3(CC[C@@H]21)[C@H](Br)C4=O`, the half-inhibitory concentration (IC50) in experiment [2] came out at 1700 nM; in experiment [5] it was 240 nM; in experiment [6], 3310 nM. The Ratio IC50 is 7 in experiment [3] and 14 in experiment [4]. For the same compound, the inhibition in experiment [1] was determined as 81.7%.

`CCOC(=O)[C@]1(C)CCC[C@@]2(C)[C@@H]3CC[C@@]4(C)C[C@]3(CC[C@@H]21)C[C@H]4O`: in experiment [1], the inhibition was 67.2%.

`C[C@@]12CC[C@@H]3[C@@](CC[C@H]4[C@@]3(C)CCC[C@@]4(C)C(=O)OCCCCCBr)(CC1=O)C2` returned an inhibition in experiment [1] of 71.9%.

In experiment [1], `C[C@@]12CC[C@@H]3[C@@](CC[C@H]4[C@@]3(C)CCC[C@@]4(C)C(=O)O)(C/C1=N\O)C2` showed an inhibition of 61.9%.

As for `CCCOC(=O)[C@]1(C)CCC[C@@]2(C)[C@@H]3CC[C@@]4(C)C[C@]3(CC[C@@H]21)C/C4=N\O`, the inhibition in experiment [1] was found to be 76.3%.

For the compound `C[C@@]12CC[C@@H]3[C@@](CC[C@H]4[C@@]3(C)CCC[C@@]4(C)C(=O)OCCCCN3CCCCC3)(CC1=O)C2`, in experiment [1], the inhibition came to 77.7%.

In turn, `C[C@@]12CC[C@@H]3[C@@](CC[C@H]4[C@@]3(C)CCC[C@@]4(C)C(=O)OCc3cccc(C#N)c3)(CC1=O)C2` yielded an inhibition in experiment [1] of 76%.

For the compound `C[C@@]12CC[C@@H]3[C@@](CC[C@H]4[C@@]3(C)CCC[C@@]4(C)C(=O)OCCCCBr)(CC1=O)C2`, the inhibition in experiment [1] is 70.9%.

Take `C[C@@]12CC[C@@H]3[C@@](CC[C@H]4[C@@]3(C)CCC[C@@]4(C)C(=O)OCc3ccccc3I)(CC1=O)C2`: the IC50 in experiment [2] was determined as 1410 nM; in experiment [5], 400 nM; in experiment [6], 3240 nM. Besides, the Ratio IC50 in experiment [3] was 3.5; in experiment [4], 6. The same compound had an inhibition in experiment [1] of 82.6%.

The compound `CCOC(=O)[C@]1(C)CCC[C@@]2(C)[C@@H]3CC[C@@]4(C)C[C@]3(CC[C@@H]21)C/C4=N\OC` returned an inhibition in experiment [1] of 71.5%.

The compound `C[C@@]12CC[C@@H]3[C@@](CC[C@H]4[C@@]3(C)CCC[C@@]4(C)C(=O)OCc3ccccc3)(CC1=O)C2` displayed an inhibition in experiment [1] of 52.4%.

With `CC(=O)O[C@@H]1C[C@]23CC[C@H]4[C@@](C)(CCC[C@@]4(C)C(=O)O)[C@@H]2CC[C@@]1(C)C3`, the inhibition in experiment [1] turned out to be 74%.

For `Cc1ccc(COC(=O)[C@]2(C)CCC[C@@]3(C)[C@@H]4CC[C@@]5(C)C[C@]4(CC[C@@H]32)CC5=O)cc1`, the inhibition in experiment [1] worked out at 71.8%.

`C[C@@]12CC[C@@H]3[C@@](CC[C@H]4[C@@]3(C)CCC[C@@]4(C)C(=O)OCc3ccccc3Br)(CC1=O)C2` had an inhibition in experiment [1] of 50.3%.

Consider `CCCOC(=O)[C@]1(C)CCC[C@@]2(C)[C@@H]3CC[C@@]4(C)C[C@]3(CC[C@@H]21)CC4=O`, for which the inhibition in experiment [1] was found to be 61.9%.

For the compound `C[C@@]12CC[C@@H]3[C@@](CC[C@H]4[C@@]3(C)CCC[C@@]4(C)C(=O)OCCBr)(CC1=O)C2`, the inhibition in experiment [1] is 73.6%.

`CCOC(=O)[C@]1(C)CCC[C@@]2(C)[C@@H]3CC[C@@]4(C)C[C@]3(CC[C@@H]21)C[C@H]4OC(=O)c1ccccc1`: the inhibition in experiment [1] was 75.5%.

In the case of `CCOC(=O)[C@]1(C)CCC[C@@]2(C)[C@@H]3CC[C@@]4(C)C[C@]3(CC[C@@H]21)C/C4=N\O`, in experiment [1], the inhibition was determined as 50.8%.

`C[C@@]12CC[C@@H]3[C@@](CC[C@H]4[C@@]3(C)CCC[C@@]4(C)C(=O)OCCN3CCNCC3)(CC1=O)C2` registered an IC50 in experiment [5] of 800 nM. Further, in experiment [1], the inhibition stood at 78.5%.

In experiment [1], `Cc1ccc(S(=O)(=O)N/N=C2/C[C@]34CC[C@H]5[C@@](C)(CCC[C@@]5(C)C(=O)O)[C@@H]3CC[C@@]2(C)C4)cc1` yielded an inhibition of 75.3%.

On to `C[C@@]12CC[C@@H]3[C@@](CC[C@H]4[C@@]3(C)CCC[C@@]4(C)C(=O)O)(C[C@H]1O)C2`, for which the inhibition in experiment [1] worked out at 36.2%.

With `C[C@@]12CC[C@@H]3[C@@](CC[C@H]4[C@@]3(C)CCC[C@@]4(C)C(=O)OCc3ccccc3Cl)(CC1=O)C2`, in experiment [1], the inhibition stood at 43.8%.

`COC(=O)[C@]1(C)CCC[C@@]2(C)[C@@H]3CC[C@@]4(C)C[C@]3(CC[C@@H]21)CC4=O` came in with an inhibition in experiment [1] of 70.1%.

The compound `C[C@@]12CC[C@@H]3[C@@](CC[C@H]4[C@@]3(C)CCC[C@@]4(C)C(=O)OCCN3CCCCC3)(CC1=O)C2` had an inhibition in experiment [1] of 74.2%.

In experiment [1], `CCOC(=O)[C@]1(C)CCC[C@@]2(C)[C@@H]3CC[C@@]4(C)C[C@]3(CC[C@@H]21)CC4=O` gave an inhibition of 73.9%.

As usually defined, the inhibition is the change of the read-out against control, counted positive when it falls. A word on the IC50: it is the midpoint of a concentration-inhibition curve.
